Like-named read-outs stand apart in the source and are kept apart here.
Legend:
[1] = test system: K. pneumoniae NVT1001 gyrA/parC and gyrA/parC/ramR mutants and revertants; test: Etest MIC of quinolones, gyrA/parC and gyrA/parC/ramR mutants and their revertants (Table 11); type: cell-based; details: Klebsiella pneumoniae
Source text: The allelic-exchange method was used to restore the wild-type gene in the K. pneumoniae NVT1001 mutants with constructed chromosome-mediated resistance mechanisms, as described by Tsai et al.^19 Briefly, a DNA fragment of the entire wild-type gene sequence along with flanking regions was amplified from K. pneumoniae NVT1001 using PCR with specific primers. The resulting PCR fragment was digested and then cloned into pUT-KB. For homologous recombination, this plasmid was transformed into E. coli S17-1 λpir^23 via electroporation and mobilized into the K. pneumoniae NVT1001 mutant via conjugation. […] After incubation in 20 mL BHI broth for 6 hours at 37° C. in the absence of kanamycin, the fully grown cultures were spread onto LB agar plates supplemented with 10% sucrose. After the double crossover occurred, the sucrose-resistant and kanamycin-susceptible colonies were selected, and the restoration of the wild-type gene was confirmed via DNA sequencing.
(§1) The MICs of antibiotics were determined using the Etest (Biodisk AB, Sweden) according to the manufacturer's instructions. The MICs from the Etest, which fall between standard two-fold dilutions, were rounded up to the next highest two-fold value. The MICs of ceftazidime and cefotaxime against K. pneumoniae NVT1001 harbouring the pACYC177 plasmid with blaOXA-48 were further determined using a broth microdilution test according to the recommendations of the CLSI,^25 and the results were interpreted according to the breakpoints established by the CLSI in 2017.^25 Meanwhile, due to the lack of CLSI breakpoints in 2016 and 2017, the results for cephalothin were interpreted according to the breakpoints established by the CLSI in 2015,^26 and the results for moxifloxacin were interpreted according to the breakpoints established by the EUCAST in 2017.^27

[2] = test system: A. baumannii KW1 and its GyrA/ParC mutants; test: Etest MIC of quinolones, GyrA and/or ParC mutations (Table 17); type: cell-based; details: Acinetobacter baumannii
Source text: DNA fragments of the entire adeR, adeS, gyrA and parC along with their flanking regions were amplified from A. baumannii KW1 using PCR with specific primer pairs and then cloned into plasmid pUT-KB. The QuikChange site-directed mutagenesis kit (Stratagene) was used to generate mutations in the adeR, adeS, gyrA and parC genes in the plasmids using the methods described by the manufacturer. For homologous recombination, plasmids containing mutations in the adeR, adeS, gyrA or parC gene were transformed into E. coli S17-1 λpir^23 via electroporation and mobilized into A. baumannii KW1 via conjugation. Single-crossover strains were selected from Luria-Bertani (LB) plates supplemented with cefotaxime (1 μg/ml) and kanamycin ([…]), as the growth of non-A. baumannii contaminants is suppressed by cefotaxime (1 μg/ml). The kanamycin-resistant transconjugants were selected and the insertion of plasmids was verified via PCR. After incubation in 20 ml brain heart infusion (BHI) broth for 6 hours in the absence of kanamycin at 37° C., the fully grown cultures were spread onto LB plates supplemented with 10% sucrose. After the double crossover occurred, the sucrose-resistant and kanamycin-susceptible colonies were selected, and the gene mutations were confirmed via PCR.
as §1

[3] = S83F/D87N/S80I::F83S/N87D/I80S revertant, read-out: MIC
[4] = S83F/D87N/S80I::I80S revertant, read-out: MIC
[5] = S83F/D87N/S80I::N87D revertant, read-out: MIC
[6] = S83F/D87N/S80I::N87D/I80S revertant, read-out: MIC
[7] = S83I/D87N/S80I::I80S revertant, read-out: MIC
[8] = S83I/D87N/S80I::I83S/N87D/I80S revertant, read-out: MIC
[9] = S83I/D87N/S80I::N87D revertant, read-out: MIC
[10] = S83I/D87N/S80I::N87D/I80S revertant, read-out: MIC
[11] = S83L/D87N/S80I::I80S revertant, read-out: MIC
[12] = S83L/D87N/S80I::L83S/N87D/I80S revertant, read-out: MIC
[13] = S83L/D87N/S80I::N87D revertant, read-out: MIC
[14] = S83L/D87N/S80I::N87D/I80S revertant, read-out: MIC
[15] = S83Y/D87N/S80I::I80S revertant, read-out: MIC
[16] = S83Y/D87N/S80I::N87D revertant, read-out: MIC
[17] = S83Y/D87N/S80I::N87D/I80S revertant, read-out: MIC
[18] = S83Y/D87N/S80I::Y83S/N87D/I80S revertant, read-out: MIC
[19] = ΔramR/S83I/D87N/S80I:: ramR/I83S revertant
[20] = ΔramR/S83I/D87N/S80I:: ramR/I83S/I80S revertant
[21] = ΔramR/S83I/D87N/S80I:: ramR/I83S/N87D revertant
[22] = ΔramR/S83I/D87N/S80I::I83S/N87D/I80S revertant
[23] = ΔramR/S83I/D87N/S80I::N87D revertant
[24] = ΔramR/S83I/D87N/S80I::N87D/I80S revertant
[25] = ΔramR/S83I/D87N/S80I::ramR/I83S/N87D/I80S

SMILES | MIC ([1]; S83F/D87N/S80I mutant) [mg/L] | MIC [1, 3] [mg/L] | MIC [1, 4] [mg/L] | MIC [1, 5] [mg/L] | MIC [1, 6] [mg/L] | MIC ([1]; S83I/D87N/S80I mutant) [mg/L] | MIC [1, 7] [mg/L] | MIC [1, 8] [mg/L] | MIC [1, 9] [mg/L] | MIC [1, 10] [mg/L] | MIC ([1]; S83L/D87N/S80I mutant) [mg/L] | MIC [1, 11] [mg/L] | MIC [1, 12] [mg/L] | MIC [1, 13] [mg/L] | MIC [1, 14] [mg/L] | MIC ([1]; S83Y/D87N/S80I mutant) [mg/L] | MIC [1, 15] [mg/L] | MIC [1, 16] [mg/L] | MIC [1, 17] [mg/L] | MIC [1, 18] [mg/L] | other results
C[C@H]1COc2c(N3CCN(C)CC3)c(F)cc3c(=O)c(C(=O)O)cn1c23 [Levofloxacin, levofloxacin] | 8 | 0.06 | 0.5 | 1 | 0.5 | 8 | 1 | 0.06 | 4 | 1 | 8 | 1 | 0.06 | 2 | 1 | 4 | 0.5 | 1 | 0.5 | 0.06 | MIC ([1]; ΔramR/S83I/D87N/S80I mutant): > 32 mg/L; MIC [1, 19]: 0.5 mg/L; MIC [1, 20]: 0.5 mg/L; MIC [1, 21]: 0.06 mg/L; MIC [1, 22]: 1 mg/L; MIC [1, 23]: > 32 mg/L; MIC [1, 24]: 8 mg/L; MIC [1, 25]: 0.06 mg/L; MIC ([2]; E84K mutant): 0.19 mg/L; MIC ([2]; G78C mutant): 0.19 mg/L; MIC ([2]; KW1, read-out: MIC): 0.19 mg/L; MIC ([2]; S80L mutant): 0.19 mg/L; MIC ([2]; S80W mutant): 0.19 mg/L; MIC ([2]; S80Y mutant): 0.19 mg/L; MIC ([2]; S83L mutant): 1 mg/L; MIC ([2]; S83L/E84K mutant): > 32 mg/L; MIC ([2]; S83L/G78C mutant): 32 mg/L; MIC ([2]; S83L/S80L mutant): > 32 mg/L; MIC ([2]; S83L/S80W mutant): > 32 mg/L; MIC ([2]; S83L/S80Y mutant): > 32 mg/L
COc1c(N2C[C@@H]3CCCN[C@@H]3C2)c(F)cc2c(=O)c(C(=O)O)cn(C3CC3)c12 [Moxifloxacin, moxifloxacin] | 32 | 0.125 | 1 | 0.5 | 0.5 | > 32 | 1 | 0.125 | 4 | 1 | 32 | 1 | 0.125 | 1 | 0.5 | 32 | 0.5 | 0.5 | 0.5 | 0.125 | MIC ([1]; ΔramR/S83I/D87N/S80I mutant): > 32 mg/L; MIC [1, 19]: 1 mg/L; MIC [1, 20]: 0.5 mg/L; MIC [1, 21]: 0.25 mg/L; MIC [1, 22]: 1 mg/L; MIC [1, 23]: > 32 mg/L; MIC [1, 24]: 8 mg/L; MIC [1, 25]: 0.125 mg/L; MIC ([2]; E84K mutant): 0.19 mg/L; MIC ([2]; G78C mutant): 0.19 mg/L; MIC ([2]; KW1, read-out: MIC): 0.19 mg/L; MIC ([2]; S80L mutant): 0.25 mg/L; MIC ([2]; S80W mutant): 0.19 mg/L; MIC ([2]; S80Y mutant): 0.19 mg/L; MIC ([2]; S83L mutant): 0.75 mg/L; MIC ([2]; S83L/E84K mutant): 6 mg/L; MIC ([2]; S83L/G78C mutant): 4 mg/L; MIC ([2]; S83L/S80L mutant): 6 mg/L; MIC ([2]; S83L/S80W mutant): 8 mg/L; MIC ([2]; S83L/S80Y mutant): 6 mg/L
CCn1cc(C(=O)O)c(=O)c2ccc(C)nc21 [Nalidixic acid, nalidixic acid] | > 256 | 4 | > 256 | > 256 | > 256 | > 256 | > 256 | 4 | > 256 | > 256 | > 256 | > 256 | 4 | > 256 | > 256 | > 256 | > 256 | > 256 | > 256 | 8 | MIC ([1]; ΔramR/S83I/D87N/S80I mutant): > 256 mg/L; MIC [1, 19]: > 256 mg/L; MIC [1, 20]: > 256 mg/L; MIC [1, 21]: 8 mg/L; MIC [1, 22]: 32 mg/L; MIC [1, 23]: > 256 mg/L; MIC [1, 24]: > 256 mg/L; MIC [1, 25]: 8 mg/L; MIC ([2]; E84K mutant): 12 mg/L; MIC ([2]; G78C mutant): 12 mg/L; MIC ([2]; KW1, read-out: MIC): 12 mg/L; MIC ([2]; S80L mutant): 12 mg/L; MIC ([2]; S80W mutant): 12 mg/L; MIC ([2]; S80Y mutant): 12 mg/L; MIC ([2]; S83L mutant): > 256 mg/L; MIC ([2]; S83L/E84K mutant): > 256 mg/L; MIC ([2]; S83L/G78C mutant): > 256 mg/L; MIC ([2]; S83L/S80L mutant): > 256 mg/L; MIC ([2]; S83L/S80W mutant): > 256 mg/L; MIC ([2]; S83L/S80Y mutant): > 256 mg/L
CCn1cc(C(=O)O)c(=O)c2cc(F)c(N3CCNCC3)cc21 [Norfloxacin, norfloxacin] | 32 | 0.25 | 2 | 4 | 2 | 64 | 2 | 0.25 | 16 | 2 | 64 | 2 | 0.25 | 8 | 2 | 32 | 2 | 4 | 2 | 0.25 | MIC ([1]; ΔramR/S83I/D87N/S80I mutant): > 256 mg/L; MIC [1, 19]: 2 mg/L; MIC [1, 20]: 1 mg/L; MIC [1, 21]: 0.25 mg/L; MIC [1, 22]: 2 mg/L; MIC [1, 23]: 128 mg/L; MIC [1, 24]: 8 mg/L; MIC [1, 25]: 0.25 mg/L; MIC ([2]; E84K mutant): 4 mg/L; MIC ([2]; G78C mutant): 4 mg/L; MIC ([2]; KW1, read-out: MIC): 4 mg/L; MIC ([2]; S80L mutant): 4 mg/L; MIC ([2]; S80W mutant): 6 mg/L; MIC ([2]; S80Y mutant): 4 mg/L; MIC ([2]; S83L mutant): 24 mg/L; MIC ([2]; S83L/E84K mutant): > 256 mg/L; MIC ([2]; S83L/G78C mutant): > 256 mg/L; MIC ([2]; S83L/S80L mutant): > 256 mg/L; MIC ([2]; S83L/S80W mutant): > 256 mg/L; MIC ([2]; S83L/S80Y mutant): > 256 mg/L
CC1COc2c(N3CCN(C)CC3)c(F)cc3c(=O)c(C(=O)O)cn1c23 (centres unmarked) [Ofloxacin, ofloxacin] | 16 | 0.25 | 2 | 4 | 2 | 32 | 2 | 0.25 | 8 | 2 | 32 | 2 | 0.25 | 4 | 2 | 16 | 2 | 4 | 2 | 0.25 | MIC ([1]; ΔramR/S83I/D87N/S80I mutant): > 32 mg/L; MIC [1, 19]: 1 mg/L; MIC [1, 20]: 1 mg/L; MIC [1, 21]: 0.25 mg/L; MIC [1, 22]: 2 mg/L; MIC [1, 23]: > 32 mg/L; MIC [1, 24]: > 32 mg/L; MIC [1, 25]: 0.25 mg/L; MIC ([2]; E84K mutant): 0.38 mg/L; MIC ([2]; G78C mutant): 0.38 mg/L; MIC ([2]; KW1, read-out: MIC): 0.38 mg/L; MIC ([2]; S80L mutant): 0.5 mg/L; MIC ([2]; S80W mutant): 0.5 mg/L; MIC ([2]; S80Y mutant): 0.38 mg/L; MIC ([2]; S83L mutant): 6 mg/L; MIC ([2]; S83L/E84K mutant): > 32 mg/L; MIC ([2]; S83L/G78C mutant): 32 mg/L; MIC ([2]; S83L/S80L mutant): > 32 mg/L; MIC ([2]; S83L/S80W mutant): > 32 mg/L; MIC ([2]; S83L/S80Y mutant): > 32 mg/L
